This is an account of results in patent US10040798B2, “Pyrrolopyridazine inhibitors of IRAK4 activity” (MERCK SHARP & DOHME CORP., priority 2015, dated 2018).

In this experiment the target is IRAK4 (Homo sapiens (Human), UniProt Q9NWZ3). Put plainly: IRAK4 Kinase Assay (IMAP fluorescence polarization). It is filed as biochemical. The conditions noted are these: 0.5 nM GST tagged IRAK4, 100 μM ATP, 30 minutes at 25° C., IMAP FP. An outline of the steps: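 GST-tagged IRAK4 (0.5 nM) phosphorylated 100 nM fluorescent peptide RP7030 with 100 μM ATP in 10 mM Tris-HCl pH 7.2, MgCl2, DTT and Tween 20 for 30 min at 25 °C. Phosphorylation was read as the increase in fluorescence polarization after binding to IMAP nanoparticles.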
Sequence of IRAK4 (Q9NWZ3 whole entry): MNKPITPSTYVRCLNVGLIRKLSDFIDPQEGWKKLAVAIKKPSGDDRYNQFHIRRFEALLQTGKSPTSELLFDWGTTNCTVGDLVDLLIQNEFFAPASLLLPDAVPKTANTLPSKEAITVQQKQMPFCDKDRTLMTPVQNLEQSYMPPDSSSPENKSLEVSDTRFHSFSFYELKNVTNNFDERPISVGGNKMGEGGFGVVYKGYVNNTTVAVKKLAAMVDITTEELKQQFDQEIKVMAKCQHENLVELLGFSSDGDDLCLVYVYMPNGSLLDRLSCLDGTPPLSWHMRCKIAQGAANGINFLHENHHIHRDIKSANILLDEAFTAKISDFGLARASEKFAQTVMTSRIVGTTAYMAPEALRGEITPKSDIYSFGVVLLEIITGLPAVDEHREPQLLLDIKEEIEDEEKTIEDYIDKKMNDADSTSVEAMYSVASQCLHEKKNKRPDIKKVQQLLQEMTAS
(In general: Fluorescence polarisation rises when a labelled molecule tumbles more slowly, as on binding a larger partner.)

Counter-ions that a name gives are not always drawn.

The term IC50 denotes the concentration that inhibits the measured activity by half. In turn, `Cn1cc(NC(=O)c2ccc3ccc(N4C[C@H]5CC[C@@H]4CN5)nn23)c(C#N)n1` (single isomer, unassigned) [Example 44, N-(3-cyano-1-methyl-1H-pyrazol-4-yl)-2-[(1S,4S)- or (1R,4R)-2,5-diazabicyclo[2.2.2]oct-2-yl]pyrrolo[1,2-b]pyridazine-7-carboxamide trifluoroacetate] came in with an IC50 of 50 nM. The value for `N[C@H]1CCCC[C@H]1Nc1ccc2ccc(C(=O)Nc3cscc3Br)n2n1` [Example 63, 2-{[(1R,2S)-2-aminocyclohexyl]amino}-N-(4-bromothiophen-3-yl)pyrrolo[1,2-b]pyridazine-7-carboxamide trifluoroacetate] was 7 nM; that for `O=C(Nc1cscc1C(F)F)c1ccc2ccc(N3CC4CCC3CN4)nn12` (centres unmarked) [Example 56, 2-(2,5-diazabicyclo[2.2.2]oct-2-yl)-N-[4-(difluoromethyl)thiophen-3-yl]pyrrolo[1,2-b]pyridazine-7-carboxamide trifluoroacetate] was 95 nM. Compound `Cn1cc(NC(=O)c2ccc3ccc(N[C@H]4CCCCNC4)nn23)c(C(F)(F)F)n1` (single isomer, unassigned) [Example 40, 2-[(3R)- or (3S)-azepan-3-ylamino]-N-[1-methyl-3-(trifluoromethyl)-1H-pyrazol-4-yl]pyrrolo[1,2-b]pyridazine-7-carboxamide trifluoroacetate] displayed an IC50 of 2 nM. As for `O=C(Nc1ccccc1C(F)(F)F)c1ccc2ccc(N3CCCNCC3)nn12` [Example 111, 2-(1,4-Diazepan-1-yl)-N-(2-(trifluoromethyl)phenyl)pyrrolo[1,2-b]pyridazine-7-carboxamide], the concentration for half-maximal inhibition (IC50) amounted to 1420 nM. On to `Cn1cc(NC(=O)c2ccc3ccc(N4C[C@H]5CC[C@@H]4CN5)nn23)c(C(F)F)n1` (single isomer, unassigned) [Example 38, 2-[(1S,4S)- or (1R,4R)-2,5-diazabicyclo[2.2.2]oct-2-yl]-N-[3-(difluoromethyl)-1-methyl-1H-pyrazol-4-yl]pyrrolo[1,2-b]pyridazine-7-carboxamide trifluoroacetate], for which the IC50 turned out to be 2 nM.

`Cn1cc(NC(=O)c2ccc3ccc(N[C@@H]4CCCC(F)(F)[C@@H]4N)nn23)c(C#N)n1` [Example 52, 2-{[(1R,2R)-2-amino-3,3-difluoro-cyclohexyl]amino}-N-(3-cyano-1-methyl-1H-pyrazol-4-yl)pyrrolo[1,2-b]pyridazine-7-carboxamide trifluoroacetate] registered a 50% inhibitory concentration (IC50) of 43 nM. On to `N#Cc1ccccc1NC(=O)c1ccc2ccc(N3CCNCC4(CC4)C3)nn12` [Example 103, N-(2-cyanophenyl)-2-(5,8-diazaspiro[2.6]non-5-yl)pyrrolo[1,2-b]pyridazine-7-carboxamide trifluoroacetate], for which the 50% inhibitory concentration (IC50) is 766 nM.

Take `Cn1cc(NC(=O)c2ccc3ccc(N4CC5CCC4CN5)nn23)c(Cl)n1` (centres unmarked) [Example 26, N-(3-chloro-1-methyl-1H-pyrazol-4-yl)-2-(2,5-diazabicyclo[2.2.2]oct-2-yl)pyrrolo[1,2-b]pyridazine-7-carboxamide trifluoroacetate]: it took 28 nM to reach half-maximal inhibition (IC50). Consider `Cn1cc(NC(=O)c2ccc3ccc(N[C@@H]4CCCC[C@@H]4N)nn23)c(C#N)n1` [Example 29, 2-{[(1R,2S)-2-aminocyclohexyl]amino}-N-(3-cyano-1-methyl-1H-pyrazol-4-yl)pyrrolo[1,2-b]pyridazine-7-carboxamide trifluoroacetate], for which half-maximal inhibition (IC50) was put at 0.7 nM. For the compound `Cn1cc(NC(=O)c2ccc3ccc(N[C@@H]4CCCC[C@@H]4N)nn23)c(C(F)(F)F)n1` [Example 1, 2-(((1R,2S)-2-Aminocyclohexyl)amino)-N-(1-methyl-3-(trifluoromethyl)-1H-pyrazol-4-yl)pyrrolo[1,2-b]pyridazine-7-carboxamide], the half-maximal inhibitory concentration (IC50) came out at 5 nM. As to `Cn1cc(NC(=O)c2ccc3ccc(N4C5CCC4CNC5)nn23)c(C(F)(F)F)n1` [Example 120, 2-(3,8-diazabicyclo[3.2.1]oct-8-yl)-N-[1-methyl-3-(trifluoromethyl)-1H-pyrazol-4-yl]pyrrolo[1,2-b]pyridazine-7-carboxamide trifluoroacetate], the IC50 is 2 nM. The value for `Cn1cc(NC(=O)c2ccc3ccc(N4C[C@H]5CC[C@@H]4CN5)nn23)c(Cl)n1` (single isomer, unassigned) [Example 34, N-(3-chloro-1-methyl-1H-pyrazol-4-yl)-2-[(1S,4S)- or (1R,4R)-2,5-diazabicyclo[2.2.2]oct-2-yl]pyrrolo[1,2-b]pyridazine-7-carboxamide trifluoroacetate] was 15 nM. The compound `O=C(Nc1ccsc1C(F)(F)F)c1ccc2ccc(N3CCCNCC3)nn12` [Example 115, 2-(1,4-diazepan-1-yl)-N-[2-(trifluoromethyl)thiophen-3-yl]pyrrolo[1,2-b]pyridazine-7-carboxamide trifluoroacetate] had an IC50 of 2020 nM.

The compound `Cn1cc(NC(=O)c2ccc3ccc(N4CC5CCC4CN5)nn23)c(C(F)(F)F)n1` (centres unmarked) [Example 11, 2-(2,5-diazabicyclo[2.2.2]oct-2-yl)-N-[1-methyl-3-(trifluoromethyl)-1H-pyrazol-4-yl]pyrrolo[1,2-b]pyridazine-7-carboxamide] registered an IC50 of 27 nM. The value for `Cn1cc(NC(=O)c2ccc3ccc(N[C@@H]4CCCC(F)(F)[C@@H]4N)nn23)c(Cl)n1` [Example 48, 2-{[(1R,2R)-2-amino-3,3-difluoro-cyclohexyl]amino}-N-(3-chloro-1-methyl-1H-pyrazol-4-yl)pyrrolo[1,2-b]pyridazine-7-carboxamide acetate] was 138 nM; that for `Cn1cc(NC(=O)c2ccc3ccc(N4C[C@@H]5CN[C@@H](C5)C4)nn23)c(C(F)(F)F)n1` (single isomer, unassigned) [Example 3, 2-[(1S,5S)- or (1R,5R)-3,6-diazabicyclo[3.2.1]oct-3-yl]-N-[1-methyl-3-(trifluoromethyl)-1H-pyrazol-4-yl]pyrrolo[1,2-b]pyridazine-7-carboxamide] was 85 nM; that for `Cn1cc(NC(=O)c2ccc3ccc(N[C@@H]4CCCC[C@@H]4N)nn23)c(Cl)n1` [Example 25, 2-{[(1R,2S)-2-aminocyclohexyl]amino}-N-(3-chloro-1-methyl-1H-pyrazol-4-yl)pyrrolo[1,2-b]pyridazine-7-carboxamide trifluoroacetate] was 1 nM. In turn, `Cn1cc(NC(=O)c2ccc3ccc(N4CCCNCC4)nn23)c(Br)n1` [Example 21, N-(3-bromo-1-methyl-1H-pyrazol-4-yl)-2-(1,4-diazepan-1-yl)pyrrolo[1,2-b]pyridazine-7-carboxamide trifluoroacetate] yielded a half-maximal inhibitory concentration (IC50) of 32 nM. `Cn1cc(NC(=O)c2ccc3ccc(N4CCCNCC4)nn23)c(C#N)n1` [Example 30, N-(3-cyano-1-methyl-1H-pyrazol-4-yl)-2-(1,4-diazepan-1-yl)pyrrolo[1,2-b]pyridazine-7-carboxamide trifluoroacetate] registered an IC50 of 27 nM. With `N#Cc1cscc1NC(=O)c1ccc2ccc(N[C@@H]3CCCC[C@@H]3N)nn12` [Example 73, 2-{[(1R,2S)-2-aminocyclohexyl]amino}-N-(4-cyanothiophen-3-yl)pyrrolo[1,2-b]pyridazine-7-carboxamide trifluoroacetate], the IC50 turned out to be 3 nM. `N#Cc1ccccc1NC(=O)c1ccc2ccc(N[C@@H]3CCCNC3)nn12` [Example 105, N-(2-cyanophenyl)-2-[(3R)-piperidin-3-ylamino]pyrrolo[1,2-b]pyridazine-7-carboxamide trifluoroacetate] showed an IC50 of 6 nM. In turn, `N#Cc1ccccc1NC(=O)c1ccc2ccc(N[C@H]3CCCCNC3)nn12` (single isomer, unassigned) [Example 109, 2-[(3R)- or (3S)-azepan-3-ylamino]-N-(2-cyanophenyl)pyrrolo [1,2-b]pyridazine-7-carboxamide trifluoroacetate] gave an IC50 of 7 nM. Compound `O=C(Nc1cscc1Br)c1ccc2ccc(N3CC4CCC3CN4)nn12` (centres unmarked) [Example 62, N-(4-bromothiophen-3-yl)-2-(2,5-diazabicyclo[2.2.2]oct-2-yl)pyrrolo[1,2-b]pyridazine-7-carboxamide trifluoroacetate] displayed an IC50 of 415 nM.

In the case of `O=C(Nc1ccccc1Br)c1ccc2ccc(N3CC4CCC3CN4)nn12` (centres unmarked) [Example 61, N-(2-bromophenyl)-2-(2,5-diazabicyclo[2.2.2]oct-2-yl)pyrrolo[1,2-b]pyridazine-7-carboxamide trifluoroacetate], half-maximal inhibition (IC50) was put at 1660 nM. The result for `N[C@H]1CCCC[C@H]1Nc1ccc2ccc(C(=O)Nc3cscc3C(F)F)n2n1` [Example 72, 2-{[(1R,2S)-2-aminocyclohexyl]amino}-N-[4-(difluoromethyl)thiophen-3-yl]pyrrolo[1,2-b]pyridazine-7-carboxamide trifluoroacetate] reads 24 nM; that for `Cn1cc(NC(=O)c2ccc3ccc(N[C@@H]4CCCCNC4)nn23)c(C(F)F)n1` (single isomer, unassigned) [Example 41, 2-[(3R)- or (3S)-azepan-3-ylamino]-N-[3-(difluoromethyl)-1-methyl-1H-pyrazol-4-yl]pyrrolo[1,2-b]pyridazine-7-carboxamide trifluoroacetate], 0.2 nM; that for `Cn1cc(NC(=O)c2ccc3ccc(N[C@@H]4CCCCNC4)nn23)c(C(F)(F)F)n1` (single isomer, unassigned) [Example 39, 2-[(3R)- or (3S)-azepan-3-ylamino]-N-[1-methyl-3-(trifluoromethyl)-1H-pyrazol-4-yl]pyrrolo[1,2-b]pyridazine-7-carboxamide trifluoroacetate], 2 nM. The value for `Cn1cc(NC(=O)c2ccc3ccc(N[C@H]4CCCCNC4)nn23)c(C(F)F)n1` (single isomer, unassigned) [Example 42, 2-[(3R)- or (3S)-azepan-3-ylamino]-N-[3-(difluoromethyl)-1-methyl-1H-pyrazol-4-yl]pyrrolo[1,2-b]pyridazine-7-carboxamide trifluoroacetate] was 0.3 nM.
